Tests used:
hypoxemia model animals [1] = experiment: Effect on partial pressure of gases in arterial blood, injection system, Method B (acetic acid-induced hypoxemia); format: in vivo, Male Wister strain rats; settings: 2.0% acetic acid intratracheal 0.6 ml/kg, PaO2 60-70 mmHg, intravenous continuous 0.1 mg/kg/min, after minus before administration
Protocol: (§1) Example 59: Effect on Partial Pressure Value of Gases in Arterial Blood (Injection system)
Male Wister strain rats (body about 300 g) were anesthetized with halothane inhalant, and then 2.0% acetic acid was intratrachealy injected at 0.6 ml/kg to induce a respiratory insufficiency. The animals were intra-peritoneally anesthetized with urethane-α-chloralose, and a cannula was inserted into the femoral artery. After the hypoxemic state (PaO2: 60-70 mmHg) was observed a compound in accordance with the present invention (test substance) was intravenously injected into these hypoxemia model animals by a continuous manner (0.1 mg/kg/min), and then a partial pressure value of gases (PaO2, PaCO2) in arterial blood were immediately determined.

hypoxemia state = experiment: Effect on partial pressure of gases in arterial blood, oral administration system (acetic acid-induced hypoxemia); format: in vivo, Male Wistar strain rats; settings: orally administered; 2.0% acetic acid intratracheal 0.8 ml/kg; 60 min. after the administration
Protocol: Example 60: Effect on Partial Pressure Value of Gases in Arterial Blood (Oral Administration System)
Male Wistar strain rats (body weight about 250 g) fasted overnight were anesthetized with halothane inhalant, and then a cannula was inserted into the femoral artery. After the animals recovered from the anesthesia, they were again anesthetized with halothane inhalant, and then 2.0% acetic acid was intratrachealy injected at 0.8 ml/kg to induce a hypoxemia state. After the hypoxemic state was observed over about 60 min., a compound in accordance with the present invention (test substance) was orally administered to the animals. On 60 min. after the administration, the partial pressure value of gases (PaO2, PaCO2) in arterial blood were determined.

hypoxemia model animals [2] = experiment: Effect on partial pressure of gases in arterial blood, injection system, Method A (carbon powder-induced hypoxemia); format: in vivo, Male Wister strain rats; settings: carbon powder intratracheal, PaO2 50-60 mmHg, intravenous continuous 0.1 mg/kg/min., 10 min, after minus before administration
Protocol: as §1
Male Wister strain rats (body weight about 300 g) were anesthetized intra-peritoneally with urethane, and a cannula was inserted into the respiratory tract and the femoral artery, respectively. A suspension (30-100 µm, 10 mg/ml) of carbon powder in a corn oil was intratrachealy injected to induce a hypoxemia state (PaO2; 50-60 mmHg). A compound in accordance with the present invention was intravenously injected into these hypoxemia model animals by a continuous manner (0.1 mg/kg/min., 10 min), and then a partial pressure value of gases (PaO2, PaCO2) in arterial blood were immediately determined.

C=CCNc1nc(NC(C)c2ccccc2)c2ccn(C)c2n1 (racemic) [Compound 156, (±)-2-allylamino-7-methyl-4-(1-phenylethyl-amino)-7H-pyrrolo[2,3-d]pyrimidine]
Activity for Decreasing PaCO2 ΔPaCO2 (hypoxemia model animals [1]): -9.1 mmHg | Activity for Increasing PaO2 ΔPaO2 (hypoxemia model animals [1]): +19.7 mmHg | Activity for Decreasing PaCO2 ΔPaCO2 (hypoxemia state): + (+: -3 - -6 mmHg) | Activity for Increasing PaO2 ΔPaO2 (hypoxemia state): + +

C=CCNc1nc(N(C)C)c2ccn(C)c2n1 [Compound 165]
Activity for Decreasing PaCO2 ΔPaCO2 (hypoxemia model animals [1]): +1.1 mmHg | Activity for Increasing PaO2 ΔPaO2 (hypoxemia model animals [1]): +7.9 mmHg | Activity for Decreasing PaCO2 ΔPaCO2 (hypoxemia state): ± (ΔPaCO2 ±: 0 - -3 mmHg) | Activity for Increasing PaO2 ΔPaO2 (hypoxemia state): + (ΔPaO2 +: +3 - +6 mmHg)

C=CCNc1nc(N2CCN(C(c3ccc(F)cc3)c3ccc(F)cc3)CC2)c2ccn(C)c2n1 [Compound 133]
Activity for Decreasing PaCO2 ΔPaCO2 (hypoxemia model animals [2]): -0.6 mmHg | Activity for Increasing PaO2 ΔPaO2 (hypoxemia model animals [2]): +6.9 mmHg

C=CCNc1nc(NC2CCCc3ccccc32)c2ccn(C)c2n1 (centres unmarked) [Compound 162]
Activity for Decreasing PaCO2 ΔPaCO2 (hypoxemia model animals [1]): -17.2 mmHg | Activity for Increasing PaO2 ΔPaO2 (hypoxemia model animals [1]): +18.1 mmHg

C=CCNc1nc(N2CCOCC2)c2ccn(C)c2n1 [Compound 124]
Activity for Decreasing PaCO2 ΔPaCO2 (hypoxemia model animals [1]): -4.0 mmHg | Activity for Increasing PaO2 ΔPaO2 (hypoxemia model animals [1]): +5.7 mmHg | Activity for Decreasing PaCO2 ΔPaCO2 (hypoxemia state): + (+: -3 - -6 mmHg) | Activity for Increasing PaO2 ΔPaO2 (hypoxemia state): + (ΔPaO2 +: +3 - +6 mmHg)

C=CCNc1nc(NCCc2ccccc2)c2ccn(C)c2n1 [Compound 164]
Activity for Decreasing PaCO2 ΔPaCO2 (hypoxemia model animals [1]): -19.2 mmHg | Activity for Increasing PaO2 ΔPaO2 (hypoxemia model animals [1]): +15.4 mmHg

C=CCNc1nc(N2CCC(OC(C)=O)CC2)c2ccn(C)c2n1 [Compound 119]
Activity for Decreasing PaCO2 ΔPaCO2 (hypoxemia model animals [2]): -2.6 mmHg | Activity for Increasing PaO2 ΔPaO2 (hypoxemia model animals [2]): +7.1 mmHg

C=CCNc1nc(NC2CCCCC2)c2ccn(C)c2n1 [Compound 150]
Activity for Decreasing PaCO2 ΔPaCO2 (hypoxemia model animals [1]): -18.6 mmHg | Activity for Increasing PaO2 ΔPaO2 (hypoxemia model animals [1]): +18.4 mmHg

C=CCNc1nc(N2CCN(C(c3ccc(F)cc3)c3ccc(F)cc3)CC2)c2ccn(CC=C)c2n1 [Compound 143]
Activity for Decreasing PaCO2 ΔPaCO2 (hypoxemia model animals [2]): +1.1 mmHg | Activity for Increasing PaO2 ΔPaO2 (hypoxemia model animals [2]): +5.0 mmHg

C=CCNc1nc(N(C)CCc2ccccc2)c2ccn(C)c2n1 [Compound 167]
Activity for Decreasing PaCO2 ΔPaCO2 (hypoxemia model animals [1]): -6.6 mmHg | Activity for Increasing PaO2 ΔPaO2 (hypoxemia model animals [1]): +11.3 mmHg
